Like-named read-outs stand apart in the source and are kept apart here.
Columns and labels:
[1] = test system: wheat brown rust fungus (Puccinia recondita); assay: Preventive activity on wheat brown rust (Test Example 2); format: in vivo; conditions: 10 ppm, foliar application on wheat, wettable powder
CD rats (female) = assay: Oral acute toxicity test using rats (Test Example 3); conditions: for LC50 value: CD rats (female), single oral administration, suspended in tragacanth gum aqueous solution
Experimental: Each of the compound No. 2 and its racemate No. 2r was suspended in tragacanth gum aqueous solution and applied to CD rats (female) by single oral administration in a dosage of 300, 600, 1,200, 2,500 or 5,000 mg/kg to obtain its LC50 value.

[2] = test system: wheat powdery mildew fungus (Erysiphe graminis); assay: Preventive activity on wheat powdery mildew (Test Example 1); format: in vivo; conditions: foliar application on wheat, wettable powder
[3] = test system: cucumber gray mold fungus (Botrytis cinerea); assay: Effect of combined application for controlling cucumber gray mold (Test Example 8); format: in vivo; conditions: single chemical, from diameter of lesion
[4] = test system: wheat brown rust fungus (Puccinia recondita); assay: Effect of combined application for controlling wheat brown rust (Test Example 6); format: in vivo; conditions: single chemical
[5] = test system: wheat powdery mildew fungus (Erysiphe graminis f. sp. tritici); assay: Effect of combined application for controlling wheat powdery mildew (Test Example 5); format: in vivo; conditions: single chemical
[6] = test system: tomato late blight fungus (Phytophthora infestans); format: in vivo; conditions: single chemical

Compound: CNC(=O)C(=NOC)c1ccccc1C=NOC(C)c1cccc(C(F)(F)F)c1 (racemic) [2r, N-methyl-2-[2-{1-(3-trifluoromethylphenyl)ethoxyiminomethyl}phenyl]-2-methoxyiminoacetamide]
- Preventive value [1]: 32
- LC50 value (CD rats (female)): 1,784 mg/kg
- mortality (CD rats (female); single oral dosage of 300 mg/kg): no mortality
- cases died (CD rats (female); single oral dosage of 600 mg/kg): 1/5
- cases died (CD rats (female); single oral dosage of 1,200 mg/kg): 1/5
- cases died (CD rats (female); single oral dosage of 2,500 mg/kg): 4/5
- cases died (CD rats (female); single oral dosage of 5,000 mg/kg): 4/5
- Preventive value (%) ([2]; 2.0 ppm): 64%
- Preventive value (%) ([2]; 4.0 ppm): 96%

Compound: O=[N+]([O-])c1cc(C(F)(F)F)c(Cl)c([N+](=O)[O-])c1Nc1ncc(C(F)(F)F)cc1Cl [Known compound f]
- Preventive value (%) ([3]; 0.2 ppm): 52%
- Preventive value (%) ([3]; 1 ppm): 68%
- Preventive value (%) ([3]; 5 ppm): 98%

Compound: CC(Cc1ccc(C(C)(C)C)cc1)CN1C[C@@H](C)O[C@@H](C)C1 (mixture of isomers) [Known compound c, (±)-cis-4-[3-(4-tert-butylphenyl)-2-methylpropyl]-2,6-dimethylmorpholine]
- Preventive value (%) ([4]; 2.4 ppm): 0%
- Preventive value (%) ([4]; 12 ppm): 0%
- Preventive value (%) ([5]; 2.4 ppm): 18%
- Preventive value (%) ([5]; 12 ppm): 50%

Compound: CNC(=O)C(=NOC)c1ccccc1C=NO[C@@H](C)c1cccc(C(F)(F)F)c1 (single isomer, unassigned) [compound 2]
- Preventive value (%) ([4]; 0.2 ppm): 2%
- Preventive value (%) ([4]; 1 ppm): 48%
- Preventive value (%) ([3]; 0.4 ppm): 13%
- Preventive value (%) ([3]; 2 ppm): 53%
- Preventive value (%) ([3]; 10 ppm): 94%
- Preventive value [1]: 99
- LC50 value (CD rats (female)): ≥ 5,000 mg/kg
- Preventive value (%) ([2]; 2.0 ppm): 97%
- Preventive value (%) ([2]; 4.0 ppm): 100%
- Preventive value (%) ([5]; 0.2 ppm): 25%
- Preventive value (%) ([5]; 1 ppm): 87%
- Preventive value (%) ([6]; 0.4 ppm): 23%
- Preventive value (%) ([6]; 2 ppm): 73%
- Preventive value (%) ([6]; 10 ppm): 95%

Compound: CC1(C)CCC(Cc2ccc(Cl)cc2)C1(O)Cn1cncn1 (racemic) [Known compound a, (1RS,5RS;1RS,5SR)-5-(4-chlorobenzyl)-2,2-dimethyl-1-(1H-1,2,4-triazol-1-ylmethyl)cyclopentanol]
- Preventive value (%) ([4]; 0.2 ppm): 25%
- Preventive value (%) ([4]; 1 ppm): 81%
- Preventive value (%) ([5]; 0.2 ppm): 35%
- Preventive value (%) ([5]; 1 ppm): 80%

Compound: CNC(=O)C(=NOC)c1ccccc1C=NO[C@H](C)c1cccc(C(F)(F)F)c1 (single isomer, unassigned) [compound 1]
- Preventive value [1]: 0
- Preventive value (%) ([2]; 2.0 ppm): 6%
- Preventive value (%) ([2]; 4.0 ppm): 51%

Compound: CCCN(CCOc1c(Cl)cc(Cl)cc1Cl)C(=O)n1ccnc1 [Known compound d, N-propyl-N-[2-(2,4,6-trichlorophenoxy)ethyl]imidazole-1-carboxamide]
- Preventive value (%) ([4]; 2.4 ppm): 0%
- Preventive value (%) ([4]; 12 ppm): 19%
- Preventive value (%) ([6]; 0.2 ppm): 62%
- Preventive value (%) ([6]; 1 ppm): 79%
- Preventive value (%) ([6]; 5 ppm): 95%

Compound: CC(C)(C)C(O)(CCc1ccc(Cl)cc1)Cn1cncn1 (racemic) [Known compound b, (RS)-1-p-chlorophenyl-4,4-dimethyl-3-(1H-1,2,4-triazol-1-ylmethyl)pentan-3-ol]
- Preventive value (%) ([4]; 0.2 ppm): 22%
- Preventive value (%) ([4]; 1 ppm): 75%
- Preventive value (%) ([5]; 0.2 ppm): 23%
- Preventive value (%) ([5]; 1 ppm): 65%

Source: EP0949243A1, “OPTICALLY ACTIVE METHOXYIMINOACETAMIDE DERIVATIVES, PROCESS FOR THE PREPARATION OF THEM, INTERMEDIATES THEREFOR, AND PESTICIDES CONTAINING THEM AS THE ACTIVE INGREDIENT” (MITSUBISHI CHEMICAL CORPORATION, priority 1996, dated 1998)
